Laboratory results taken from patent US9937235B2, “Lipidated peptides as anti-obesity agents” (USTAV ORGANICKE CHEMIE A BIOCHEMIE AKADEMIE VED CR, V.V.I, priority 2012, dated 2018).
Where a SMILES comes first, the peptide text is derived from it. [ ]: non-standard residue; d: D form. The star is where a group is joined. Phe(4-NO2) = N[C@@H](Cc1ccc([N+](=O)[O-])cc1)C(=O)O; Phe(3,4-Cl2) = N[C@@H](Cc1ccc(Cl)c(Cl)c1)C(=O)O; 1Nal = N[C@@H](Cc1cccc2ccccc12)C(=O)O; Stearoyl = CCCCCCCCCCCCCCCCCC(=O)*; Palmitoyl = CCCCCCCCCCCCCCCC(=O)*; Myristoyl = CCCCCCCCCCCCCC(=O)*; Nle = CCCC[C@H](N)C(=O)O; Octanoyl = CCCCCCCC(=O)*

System: fasted C57BL/6 mice
Assay: Food intake in fasted mice after SC administration
Type: in vivo, mouse
Settings: fasted C57BL/6 mice, 5 mg/kg SC, 45 min
Procedure: Male C57BL/6 mice (An Lab, Prague 4) were bred in the accredited animal facility in the Institute of Organic Chemistry and Biochemistry, Czech Academy of Sciences, Prague, at the Institute of Molecular Genetics, Prague 4, at the temperature of 22±2° C. with access to food and water ad libitum. The day/night cycle was 12/12 hours (light turned on at 6:00 am). Animals were treated according to the Animal Protection Act (Act No. 246/1992). The males were fed standard chow diet St-1 (Mlýn Kocanda, Praha, Czech Republic) which contained 66% saccharides, 25% proteins and 9% lipids with a caloric value of 3.4 kcal/g.
The food was withdrawn 17 hours prior to injection of lipidated peptide and free access to water was maintained. The administration of saline, PrRP or lipidated analogs was performed either by SC injection at doses of 1-10 mg/kg (volume 0.2 ml/mouse), or by ICV using infusion pump (cannulae were inserted into the third brain ventricle 4 days before the experiment following the procedure of Maixnerová et al. (Maixnerová et al., 2011)). The single dose of peptide was 4 nmol/mouse (5 μl/mouse).
Fifteen minutes after the lipidated peptide administration, the mice were given pre-weighed food. The food was then weighed every 30 minutes for 5-10 hours. The administration of every dose was performed at least twice and one group of mice consisted of at least 6 mice. The results were presented as % of food intake as compared with the control group injected with saline.
Statistical evaluation was performed using program Graph-Pad Prism Software (San Diego, Calif., USA), and the one-way ANOVA with a subsequent Dunnettovým post-hoc test. The difference in food intake between mice injected with saline and mice injected with the examined peptide were considered statistically significant at P<0.05.

| Structure (SMILES) | Food intake in mice (5 mg/kg SC) % saline-treated group (45 min) |
| --- | --- |
| CCCCCCCCCCCCCC(=O)N[C@@H](CO)C(=O)N[C@@H](Cc1c[nH]cn1)C(=O)N[C@@H](CCC(N)=O)C(=O)N[C@@H](CCCNC(=N)N)C(=O)N1CCC[C@H]1C(=O)N[C@@H](C)C(=O)N[C@@H](CC(=O)O)C(=O)N[C@H](C(=O)N[C@@H](Cc1c[nH]cn1)C(=O)N[C@@H](Cc1c[nH]c2ccccc12)C(=O)N[C@@H](Cc1ccc(O)cc1)C(=O)N1CCC[C@H]1C(=O)N[C@@H](CCCNC(=N)N)C(=O)NCC(=O)N[C@@H](CCCC)C(=O)N[C@@H](Cc1ccccc1)C(=O)N1CCC[C@H]1C(=O)N[C@H](C(=O)N[C@H](C(=O)NCC(=O)N[C@@H](CCCNC(=N)N)C(=O)N[C@H](C(=O)N[C@H](C(=O)N[C@@H](C)C(=O)N[C@@H](CCCNC(=N)N)C(=O)N[C@@H](CC(N)=O)C(=O)NCC(=O)N[C@@H](CCC(=O)O)C(=O)N[C@H](C(=O)N[C@@H](CO)C(=O)N[C@@H](CCCNC(=N)N)C(=O)O)C(C)C)[C@@H](C)O)[C@@H](C)CC)[C@@H](C)CC)[C@@H](C)O)[C@@H](C)O [Analog 31] (Myristoyl-SHQRPADTHWYPRG[Nle]FPTIGRITARNGEVSR-OH; C-terminus assumed) | 100% |
| CCCCCCCCCCCCCCCCCC(=O)N[C@@H](CO)C(=O)N[C@@H](CCCNC(=N)N)C(=O)N[C@@H](C)C(=O)N[C@@H](Cc1c[nH]cn1)C(=O)N[C@@H](CCC(N)=O)C(=O)N[C@@H](Cc1c[nH]cn1)C(=O)N[C@@H](CO)C(=O)N[C@@H](CCCC)C(=O)N[C@@H](CCC(=O)O)C(=O)N[C@H](C(=O)N[C@@H](CCCNC(=N)N)C(=O)N[C@H](C(=O)N1CCC[C@H]1C(=O)N[C@@H](CC(=O)O)C(=O)N[C@H](C(=O)N[C@@H](CC(N)=O)C(=O)N1CCC[C@H]1C(=O)N[C@@H](C)C(=O)N[C@@H](Cc1c[nH]c2ccccc12)C(=O)N[C@@H](Cc1ccc(O)cc1)C(=O)N[C@H](C(=O)NCC(=O)N[C@@H](CCCNC(=N)N)C(=O)NCC(=O)N[C@H](C(=O)N[C@@H](CCCNC(=N)N)C(=O)N1CCC[C@H]1C(=O)N[C@H](C(=O)NCC(=O)N[C@@H](CCCNC(=N)N)C(=O)N[C@@H](Cc1ccccc1)C(N)=O)C(C)C)[C@@H](C)CC)[C@@H](C)O)[C@@H](C)CC)[C@@H](C)O)[C@@H](C)O [Analog 20] (Stearoyl-SRAHQHS[Nle]ETRTPDINPAWYTGRGIRPVGRF-NH2) | 3.5% |
| CCCCCCCCCCCCCCCC(=O)N[C@@H](CO)C(=O)N[C@@H](CCCNC(=N)N)C(=O)N[C@@H](C)C(=O)N[C@@H](Cc1c[nH]cn1)C(=O)N[C@@H](CCC(N)=O)C(=O)N[C@@H](Cc1c[nH]cn1)C(=O)N[C@@H](CO)C(=O)N[C@@H](CCCC)C(=O)N[C@@H](CCC(=O)O)C(=O)N[C@H](C(=O)N[C@@H](CCCNC(=N)N)C(=O)N[C@H](C(=O)N1CCC[C@H]1C(=O)N[C@@H](CC(=O)O)C(=O)N[C@H](C(=O)N[C@@H](CC(N)=O)C(=O)N1CCC[C@H]1C(=O)N[C@@H](C)C(=O)N[C@@H](Cc1c[nH]c2ccccc12)C(=O)N[C@@H](Cc1ccc(O)cc1)C(=O)N[C@H](C(=O)NCC(=O)N[C@@H](CCCNC(=N)N)C(=O)NCC(=O)N[C@H](C(=O)N[C@@H](CCCNC(=N)N)C(=O)N1CCC[C@H]1C(=O)N[C@H](C(=O)NCC(=O)N[C@@H](CCCNC(=N)N)C(=O)N[C@@H](Cc1ccc([N+](=O)[O-])cc1)C(N)=O)C(C)C)[C@@H](C)CC)[C@@H](C)O)[C@@H](C)CC)[C@@H](C)O)[C@@H](C)O [Analog 29] (Palmitoyl-SRAHQHS[Nle]ETRTPDINPAWYTGRGIRPVGR[Phe(4-NO2)]-NH2) | 0.7% |
| CCCCCCCCCCCCCC(=O)N[C@@H](CO)C(=O)N[C@@H](CCCNC(=N)N)C(=O)N[C@@H](C)C(=O)N[C@@H](Cc1c[nH]cn1)C(=O)N[C@@H](CCC(N)=O)C(=O)N[C@@H](Cc1c[nH]cn1)C(=O)N[C@@H](CO)C(=O)N[C@@H](CCCC)C(=O)N[C@@H](CCC(=O)O)C(=O)N[C@H](C(=O)N[C@@H](CCCNC(=N)N)C(=O)N[C@H](C(=O)N1CCC[C@H]1C(=O)N[C@@H](CC(=O)O)C(=O)N[C@H](C(=O)N[C@@H](CC(N)=O)C(=O)N1CCC[C@H]1C(=O)N[C@@H](C)C(=O)N[C@@H](Cc1c[nH]c2ccccc12)C(=O)N[C@@H](Cc1ccc(O)cc1)C(=O)N[C@H](C(=O)NCC(=O)N[C@@H](CCCNC(=N)N)C(=O)NCC(=O)N[C@H](C(=O)N[C@@H](CCCNC(=N)N)C(=O)N1CCC[C@H]1C(=O)N[C@H](C(=O)NCC(=O)N[C@@H](CCCNC(=N)N)C(=O)N[C@@H](Cc1ccc(Cl)c(Cl)c1)C(N)=O)C(C)C)[C@@H](C)CC)[C@@H](C)O)[C@@H](C)CC)[C@@H](C)O)[C@@H](C)O [Analog 25] (Myristoyl-SRAHQHS[Nle]ETRTPDINPAWYTGRGIRPVGR[Phe(3,4-Cl2)]-NH2) | 13% |
| CCCCCCCC(=O)N[C@H](C(=O)N1CCC[C@H]1C(=O)N[C@@H](CC(=O)O)C(=O)N[C@H](C(=O)N[C@@H](CC(N)=O)C(=O)N1CCC[C@H]1C(=O)N[C@@H](C)C(=O)N[C@@H](Cc1c[nH]c2ccccc12)C(=O)N[C@@H](Cc1ccc(O)cc1)C(=O)N[C@@H](C)C(=O)N[C@@H](CO)C(=O)N[C@@H](CCCNC(=N)N)C(=O)NCC(=O)N[C@H](C(=O)N[C@@H](CCCNC(=N)N)C(=O)N1CCC[C@H]1C(=O)N[C@H](C(=O)NCC(=O)N[C@@H](CCCNC(=N)N)C(=O)N[C@@H](Cc1ccccc1)C(N)=O)C(C)C)[C@@H](C)CC)[C@@H](C)CC)[C@@H](C)O [Analog 52] (Octanoyl-TPDINPAWYASRGIRPVGRF-NH2) | 100% |
| CCCCCCCCCCCCCCCC(=O)N[C@@H](CO)C(=O)N[C@@H](CCCNC(=N)N)C(=O)N[C@H](C(=O)N[C@@H](Cc1c[nH]cn1)C(=O)N[C@@H](CCCNC(=N)N)C(=O)N[C@@H](Cc1c[nH]cn1)C(=O)N[C@@H](CO)C(=O)N[C@@H](CCSC)C(=O)N[C@@H](CCC(=O)O)C(=O)N[C@H](C(=O)N[C@@H](CCCNC(=N)N)C(=O)N[C@H](C(=O)N1CCC[C@H]1C(=O)N[C@@H](CC(=O)O)C(=O)N[C@H](C(=O)N[C@@H](CC(N)=O)C(=O)N1CCC[C@H]1C(=O)N[C@@H](C)C(=O)N[C@@H](Cc1c[nH]c2ccccc12)C(=O)N[C@@H](Cc1ccc(O)cc1)C(=O)N[C@@H](C)C(=O)N[C@@H](CO)C(=O)N[C@@H](CCCNC(=N)N)C(=O)NCC(=O)N[C@H](C(=O)N[C@@H](CCCNC(=N)N)C(=O)N1CCC[C@H]1C(=O)N[C@H](C(=O)NCC(=O)N[C@@H](CCCNC(=N)N)C(=O)N[C@@H](Cc1ccccc1)C(N)=O)C(C)C)[C@@H](C)CC)[C@@H](C)CC)[C@@H](C)O)[C@@H](C)CC)[C@@H](C)O [Analog 57] | 11% |
| CCCCCCCCCCCCCCCC(=O)N[C@@H](CO)C(=O)N[C@@H](CCCNC(=N)N)C(=O)N[C@@H](C)C(=O)N[C@@H](Cc1c[nH]cn1)C(=O)N[C@@H](CCC(N)=O)C(=O)N[C@@H](Cc1c[nH]cn1)C(=O)N[C@@H](CO)C(=O)N[C@@H](CCCC)C(=O)N[C@@H](CCC(=O)O)C(=O)N[C@H](C(=O)N[C@@H](CCCNC(=N)N)C(=O)N[C@H](C(=O)N1CCC[C@H]1C(=O)N[C@@H](CC(=O)O)C(=O)N[C@H](C(=O)N[C@@H](CC(N)=O)C(=O)N1CCC[C@H]1C(=O)N[C@@H](C)C(=O)N[C@@H](Cc1c[nH]c2ccccc12)C(=O)N[C@@H](Cc1ccc(O)cc1)C(=O)N[C@H](C(=O)NCC(=O)N[C@@H](CCCNC(=N)N)C(=O)NCC(=O)N[C@H](C(=O)N[C@@H](CCCNC(=N)N)C(=O)N1CCC[C@H]1C(=O)N[C@H](C(=O)NCC(=O)N[C@@H](CCCNC(=N)N)C(=O)N[C@@H](Cc1cccc2ccccc12)C(N)=O)C(C)C)[C@@H](C)CC)[C@@H](C)O)[C@@H](C)CC)[C@@H](C)O)[C@@H](C)O [Analog 23] (Palmitoyl-SRAHQHS[Nle]ETRTPDINPAWYTGRGIRPVGR[1Nal]-NH2) | 13% |
| CCCCCCCCCCCCCCCC(=O)N[C@@H](CO)C(=O)N[C@@H](CCCNC(=N)N)C(=O)N[C@@H](C)C(=O)N[C@@H](Cc1c[nH]cn1)C(=O)N[C@@H](CCC(N)=O)C(=O)N[C@@H](Cc1c[nH]cn1)C(=O)N[C@@H](CO)C(=O)N[C@@H](CCCC)C(=O)N[C@@H](CCC(=O)O)C(=O)N[C@H](C(=O)N[C@@H](CCCNC(=N)N)C(=O)N[C@H](C(=O)N1CCC[C@H]1C(=O)N[C@@H](CC(=O)O)C(=O)N[C@H](C(=O)N[C@@H](CC(N)=O)C(=O)N1CCC[C@H]1C(=O)N[C@@H](C)C(=O)N[C@@H](Cc1c[nH]c2ccccc12)C(=O)N[C@@H](Cc1ccc(O)cc1)C(=O)N[C@H](C(=O)NCC(=O)N[C@@H](CCCNC(=N)N)C(=O)NCC(=O)N[C@H](C(=O)N[C@@H](CCCNC(=N)N)C(=O)N1CCC[C@H]1C(=O)N[C@H](C(=O)NCC(=O)N[C@@H](CCCNC(=N)N)C(=O)N[C@@H](Cc1ccc(O)cc1)C(N)=O)C(C)C)[C@@H](C)CC)[C@@H](C)O)[C@@H](C)CC)[C@@H](C)O)[C@@H](C)O [Analog 35] (Palmitoyl-SRAHQHS[Nle]ETRTPDINPAWYTGRGIRPVGRY-NH2) | 22% |
